The source of these data is patent US6025467A, “Parathyroid hormone derivatives and their use” (Takeda Chemical Industries, Ltd., priority 1995, dated 2000).

Positions count from the first letter of the chain named. Non-standard residues stand in square brackets, D forms with d. Residues, ends and D or L forms follow the SMILES beside them. No end group written: not given here. 2Nal = N[C@@H](Cc1ccc2ccccc2c1)C(=O)O; Aib = CC(C)(N)C(=O)O

The chains are these.
B1: [Asp^10 ] hPTH(1-34) (peptide)
peptide: SVSEIQLMHDLGKHLNSMERVEWLRKKLQDVHNF
B2: [Asp^10, Phe^11 ] hPTH(1-34) (peptide)
peptide: B1 peptide with L11F
B3: [Glu^10 ] hPTH(1-34) (peptide)
peptide: B1 peptide with D10E
B4: [Asp^10, Ala(2-Naph)^11 ] hPTH(1-34) (peptide)
peptide: SVSEIQLMHD[2Nal]GKHLNSMERVEWLRKKLQDVHNF

The first experiment deals with PTH receptor (mouse, UniProt P41593). The experiment is described as follows: cell-based or functional assay.
Details: not given
With B1, the “cAMP increase (pmol/well)” value was 0.6 pmol/well.
With B2, the “cAMP increase (pmol/well)” value was 2.58 pmol/well.
Turning to B3, the “cAMP increase (pmol/well)” value is 1.81 pmol/well.
On to B4, for which the “cAMP increase (pmol/well)” value came out at 2.65 pmol/well.

For another experiment, the system named is Sprangue Dawley rats. The experiment in a line: Increase in femur bone weight in rats after subcutaneous dosing. It is filed as in vivo, rat. The conditions noted are these: 4.9 nmol/kg a day subcutaneously for two weeks; four-week-old male rats; dried right femur weight compared with vehicle group. Here is the method:
To four-week-old male Sprangue Dawley rats, the compounds synthesized in Example 1 […], and increases in the bone weight in their femurs were compared with that of a group to which a vehicle (0.15M NaCl, 0.001N hydrochloric acid and 2% heat-inactivated rat serum) was given. After administration, their right femurs were taken out, and the tissues around them were removed. Then, the femurs were dried at 100° C. for 3 hours and weighed.
`CC[C@H](C)[C@H](NC(=O)[C@H](CCC(=O)O)NC(=O)[C@H](CO)NC(=O)[C@@H](NC(=O)[C@@H](N)CO)C(C)C)C(=O)N[C@@H](CCC(N)=O)C(=O)N[C@@H](CC(C)C)C(=O)N[C@@H](CCSC)C(=O)N[C@@H](Cc1c[nH]cn1)C(=O)N[C@@H](CCC(=O)O)C(=O)N[C@@H](Cc1ccccc1)C(=O)N[C@H](C)C(=O)N[C@@H](CCCCN)C(=O)N[C@@H](Cc1c[nH]cn1)C(=O)N[C@@H](CC(C)C)C(=O)N[C@@H](CC(N)=O)C(=O)N[C@@H](CO)C(=O)N[C@@H](CCSC)C(=O)N[C@@H](CCC(=O)O)C(=O)N[C@@H](CCCNC(=N)N)C(=O)N[C@H](C(=O)N[C@@H](CCC(=O)O)C(=O)N[C@@H](Cc1c[nH]c2ccccc12)C(=O)N[C@@H](CC(C)C)C(=O)N[C@@H](CCCNC(=N)N)C(=O)N[C@@H](CCCCN)C(=O)N[C@@H](CCCCN)C(=O)N[C@@H](CC(C)C)C(=O)N[C@@H](CCC(N)=O)C(=O)N[C@@H](CC(=O)O)C(=O)N[C@H](C(=O)N[C@@H](Cc1c[nH]cn1)C(=O)N[C@@H](CC(N)=O)C(=O)N[C@@H](Cc1ccccc1)C(=O)O)C(C)C)C(C)C` [(10), [Glu^10, Phe^11, D-Ala^12] hPTH(1-34)] (H-SVSEIQLMHEF[dA]KHLNSMERVEWLRKKLQDVHNF-OH) returned a bone increase of 19.4 mg.
The same measure, in the same setting: for `CC[C@H](C)[C@H](NC(=O)[C@H](CCC(=O)O)NC(=O)[C@H](CO)NC(=O)[C@@H](NC(=O)[C@@H](N)CO)C(C)C)C(=O)N[C@@H](CCC(N)=O)C(=O)N[C@@H](CC(C)C)C(=O)N[C@@H](CCSC)C(=O)N[C@@H](Cc1c[nH]cn1)C(=O)N[C@@H](CCC(=O)O)C(=O)N[C@@H](CC(C)C)C(=O)NCC(=O)N[C@@H](CCCCN)C(=O)N[C@@H](Cc1c[nH]cn1)C(=O)N[C@@H](CC(C)C)C(=O)N[C@@H](CO)C(=O)N[C@@H](CO)C(=O)N[C@@H](CCSC)C(=O)N[C@@H](CCC(=O)O)C(=O)N[C@@H](CCCNC(=N)N)C(=O)N[C@H](C(=O)N[C@@H](CCC(=O)O)C(=O)N[C@@H](Cc1c[nH]c2ccccc12)C(=O)N[C@@H](CC(C)C)C(=O)N[C@@H](CCCNC(=N)N)C(=O)N[C@@H](CCCCN)C(=O)N[C@@H](CCCCN)C(=O)N[C@@H](CC(C)C)C(=O)N[C@@H](CCC(N)=O)C(=O)N[C@@H](CC(=O)O)C(=O)N[C@H](C(=O)N[C@@H](Cc1c[nH]cn1)C(=O)N[C@@H](CC(N)=O)C(=O)N[C@@H](Cc1ccccc1)C(=O)O)C(C)C)C(C)C` [(15), [Glu^10, Ser^16] hPTH(1-34)] (H-SVSEIQLMHELGKHLSSMERVEWLRKKLQDVHNF-OH) the value was 15.1 mg; for `CC[C@H](C)[C@H](NC(=O)[C@H](CCC(=O)O)NC(=O)[C@H](CO)NC(=O)[C@@H](NC(=O)[C@@H](N)CO)C(C)C)C(=O)N[C@@H](CCC(N)=O)C(=O)N[C@@H](CC(C)C)C(=O)N[C@@H](CCSC)C(=O)N[C@@H](Cc1c[nH]cn1)C(=O)N[C@@H](CCC(=O)O)C(=O)N[C@@H](Cc1ccccc1)C(=O)NCC(=O)N[C@@H](CCCCN)C(=O)N[C@@H](Cc1c[nH]cn1)C(=O)N[C@@H](CC(C)C)C(=O)N[C@@H](CCCCN)C(=O)N[C@@H](CO)C(=O)N[C@@H](CCSC)C(=O)N[C@@H](CCC(=O)O)C(=O)N[C@@H](CCCNC(=N)N)C(=O)N[C@H](C(=O)N[C@@H](CCC(=O)O)C(=O)N[C@@H](Cc1c[nH]c2ccccc12)C(=O)N[C@@H](CC(C)C)C(=O)N[C@@H](CCCNC(=N)N)C(=O)N[C@@H](CCCCN)C(=O)N[C@@H](CCC(N)=O)C(=O)N[C@@H](CC(C)C)C(=O)N[C@@H](CCC(N)=O)C(=O)N[C@@H](CC(=O)O)C(=O)N[C@H](C(=O)N[C@@H](Cc1c[nH]cn1)C(=O)N[C@@H](CC(N)=O)C(=O)N[C@@H](Cc1ccccc1)C(=O)O)C(C)C)C(C)C` [(17), [Glu^10, Phe^11, Lys^16, Gln^27] hPTH(1-34)] (H-SVSEIQLMHEFGKHLKSMERVEWLRKQLQDVHNF-OH), 12.4 mg.
On the same count and under the same terms, as for `CC[C@H](C)[C@H](NC(=O)[C@H](CCC(=O)O)NC(=O)[C@H](CO)NC(=O)[C@@H](NC(=O)[C@@H](N)CO)C(C)C)C(=O)N[C@@H](CCC(N)=O)C(=O)N[C@@H](CC(C)C)C(=O)N[C@@H](CCSC)C(=O)N[C@@H](Cc1c[nH]cn1)C(=O)N[C@@H](CC(=O)O)C(=O)N[C@@H](Cc1ccccc1)C(=O)NCC(=O)N[C@@H](CCCCN)C(=O)N[C@@H](Cc1c[nH]cn1)C(=O)N[C@@H](CC(C)C)C(=O)N[C@@H](CCCCN)C(=O)N[C@@H](CCCCN)C(=O)N[C@@H](CCSC)C(=O)N[C@@H](CCC(=O)O)C(=O)N[C@@H](CCCNC(=N)N)C(=O)N[C@H](C(=O)N[C@@H](CCC(=O)O)C(=O)N[C@@H](Cc1c[nH]c2ccccc12)C(=O)N[C@@H](CC(C)C)C(=O)N[C@@H](CCCNC(=N)N)C(=O)N[C@@H](CCCCN)C(=O)N[C@@H](CCC(N)=O)C(=O)N[C@@H](CC(C)C)C(=O)N[C@@H](CCC(N)=O)C(=O)NC(C)(C)C(=O)N[C@H](C(=O)N[C@@H](Cc1c[nH]cn1)C(=O)N[C@@H](CC(N)=O)C(=O)N[C@@H](Cc1ccccc1)C(=O)O)C(C)C)C(C)C` [(19), [Asp^10, Phe^11, Lys^16,17, Gln^2 7, Aib^30] hPTH(1-34)] (H-SVSEIQLMHDFGKHLKKMERVEWLRKQLQ[Aib]VHNF-OH), the figure is 16.9 mg; as for `CC[C@H](C)[C@H](NC(=O)[C@H](CCC(=O)O)NC(=O)[C@H](CO)NC(=O)[C@@H](NC(=O)[C@@H](N)CO)C(C)C)C(=O)N[C@@H](CCC(N)=O)C(=O)N[C@@H](CC(C)C)C(=O)N[C@@H](CCSC)C(=O)N[C@@H](Cc1c[nH]cn1)C(=O)N[C@@H](CCC(=O)O)C(=O)N[C@@H](CC(C)C)C(=O)NCC(=O)N[C@@H](CCCN)C(=O)N[C@@H](Cc1c[nH]cn1)C(=O)N[C@@H](CC(C)C)C(=O)N[C@@H](CC(N)=O)C(=O)N[C@@H](CO)C(=O)N[C@@H](CCSC)C(=O)N[C@@H](CCC(=O)O)C(=O)N[C@@H](CCCNC(=N)N)C(=O)N[C@H](C(=O)N[C@@H](CCC(=O)O)C(=O)N[C@@H](Cc1c[nH]c2ccccc12)C(=O)N[C@@H](CC(C)C)C(=O)N[C@@H](CCCNC(=N)N)C(=O)N[C@@H](CCCCN)C(=O)N[C@@H](CCCCN)C(=O)N[C@@H](CC(C)C)C(=O)N[C@@H](CCC(N)=O)C(=O)N[C@@H](CC(=O)O)C(=O)N[C@H](C(=O)N[C@@H](Cc1c[nH]cn1)C(=O)N[C@@H](CC(N)=O)C(=O)N[C@@H](Cc1ccccc1)C(=O)O)C(C)C)C(C)C` [(22), [Glu^10, Orn^13] hPTH(1-34)], 14.8 mg.

Staying with this experiment, now noted: 4.9 nmol/kg a day subcutaneously; continuously administered for 4 weeks; dried right femur weight compared with vehicle group.
Molecule `CC[C@H](C)[C@H](NC(=O)[C@H](CCC(=O)O)NC(=O)[C@H](CO)NC(=O)[C@@H](NC(=O)[C@@H](N)CO)C(C)C)C(=O)N[C@@H](CCC(N)=O)C(=O)N[C@@H](CC(C)C)C(=O)N[C@@H](CCSC)C(=O)N[C@@H](Cc1c[nH]cn1)C(=O)N[C@@H](CC(=O)O)C(=O)N[C@@H](CCCCN)C(=O)NCC(=O)N[C@@H](CCCCN)C(=O)N[C@@H](Cc1c[nH]cn1)C(=O)N[C@@H](CC(C)C)C(=O)N[C@@H](CC(N)=O)C(=O)N[C@@H](CO)C(=O)N[C@@H](CCSC)C(=O)N[C@@H](CCC(=O)O)C(=O)N[C@@H](CCCNC(=N)N)C(=O)N[C@H](C(=O)N[C@@H](CCC(=O)O)C(=O)N[C@@H](Cc1c[nH]c2ccccc12)C(=O)N[C@@H](CC(C)C)C(=O)N[C@@H](CCCNC(=N)N)C(=O)N[C@@H](CCCCN)C(=O)N[C@@H](CCCCN)C(=O)N[C@@H](CC(C)C)C(=O)N[C@@H](CCC(N)=O)C(=O)N[C@@H](CC(=O)O)C(=O)N[C@H](C(=O)N[C@@H](Cc1c[nH]cn1)C(=O)N[C@@H](CC(N)=O)C(=O)N[C@@H](Cc1ccccc1)C(=O)O)C(C)C)C(C)C` [(1), [Asp^10, Lys^11] hPTH(1-34)] (H-SVSEIQLMHDKGKHLNSMERVEWLRKKLQDVHNF-OH) displayed a bone increase of 66.6 mg.
